# Source: patent EP0088602A2, “Microbiological oxidation process” (EXXON RESEARCH AND ENGINEERING COMPANY, priority 1982, dated 1983)
# Values joined by “and” are separate entries in the source; they are usually repeats but may differ in a detail not shown here. Equal entries are not always repeated. Where two headings read alike, the source gives them in different places.
# Columns and labels:
# [1] = system: Soluble Methane Monooxygenase from Methylobacterium organophilum (ATCC 27,886); test: Oxidation of alkanes/alkenes with NADH2 regenerated by secondary alcohol dehydrogenase (Example 22); format: biochemical
# Method: (§1) The vials were incubated at 35°C on a reciprocating water bath shaker at 50 oscillations per minute.. The gaseous phase of the vials was evacuated by vacuum and replaced with a gaseous mixture consisting of 1:1 by volume oxygen:the alkane substrate indicated in Table XVIII, at which point the reaction was initiated.
# (§2) The rate of oxidation of the alkane substrates was measured either by estimation of products formed or by amount of substrate utilized from the gas or liquid phase. In the former case, 1-2 µ 1 samples of the reaction mixture were injected into a gas chromatograph immediately after addition of substrate (zero time) and after 4 and 8 min. of incubation. Specific activities were expressed as nmoles of product formed per min. per mg of protein, with the higher number representing better conversion. If substrate utilization was the measure of oxidation rate, […] of liquid or 50 Al of gas was injected into the gas chromatograph at zero time and after 4 and 8 min. of incubation of the reaction mixture at 35°C, and specific activities were expressed as the amount of substrate utilized per min. per mg. of protein. Regardless of the procedure employed, control experiments were conducted for each substrate in the absence of NADH2, in the absence of oxygen, and using boiled extracts.
# (§3) The alcohol products were identified and estimated by retention time comparisons and co-chromatography with authentic standards using flame-ionization gas chromatography. The column temperature was maintained isothermally between 80°C and 130°C with helium carrier gas flow rates of 20-40 ml per min. The amount of product formed was estimated from peak areas using a standard graph constructed using authentic compounds.
# (§4) Duplicate measurements were carried out for each substrate. Protein concentrations in cellular fractions were estimated with Folin Ciocalteu reagent as described by O.H. Lowry et al., supra, using bovine serum albumin as a standard.
# [2] = system: Secondary Alcohol Dehydrogenase; test: Dehydrogenation of the secondary alcohol in the coupled reaction (Example 22); format: biochemical, yeast Pichia sp.; conditions: NAD^+
# Method: The procedure of Example 15 was followed using 1.0 ml of a reaction mixture consisting of 50 µ moles potassium phosphate buffer at pH 7.0, 10 µ moles NAD^+, 10 µ moles secondary alcohol (either 2-butanol or 2-propanol), and, as the remainder, secondary alcohol dehydrogenase from yeast Pichia sp. and the soluble S(80) fraction obtained as described in Example 14. The dehydrogenase was previously purified as described in Patel et al., Eur. J. Biochem., 101, 401 (1979).
# [3] = target: T1, soluble methane monooxygenase from Methylococcus capsulatus (Bath) (Methylococcus capsulatus, UniProt P22869); format: biochemical; parameters: host or cells: soluble fraction of Methylococcus capsulatus Strain Bath; conditions: comparison with CRL.26 in Example 9
# [4] = system: Soluble Methane Monooxygenase; test: Effect of potential inhibitors on propylene oxidation by the soluble S(80) fraction (Example 9); format: biochemical, Methylobacterium organophilum (CRL.26)
# Method: (§5) The vials were incubated at 35 °C on a reciprocating water bath shaker at 50 oscillations per minute. […]
# […] Specific activities were expressed as nmoles of product formed per min. per mg. of protein, with the higher number representing better conversion. With each substrate, control experiments were conducted in the absence of NADH2, in the absence of oxygen, and using boiled extracts.
# […] The column temperature was maintained isothermally between 80 °C and 200°C with helium carrier gas flow rates of 20-40 ml per min. The amount of product formed was estimated from peak areas using a standard graph constructed using authentic compounds.
# (§6) Duplicate measurements were carried out for each substrate.
# [5] = system: Methane Monooxygenase from Methylobacterium sp. CRL.26; test: Hydroxylation of alkanes / epoxidation of alkenes with NADH2 regenerated by formaldehyde dehydrogenase (Example 12, Table XV); format: biochemical
# Method: The vials were incubated at 35 °C on a reciprocating water bath shaker at 50 oscillations per minute. The gaseous phase of the vials was evacuated by vacuum and replaced with a 1 to 1 by volume gaseous mixture of the alkane substrate indicated in Table III to oxygen, at which point the reaction was initiated.
# (§7) The rate of oxidation of the alkanes was measured by injecting 1-2 µ 1 samples of the reaction mixture into a gas chromatograph immediately after addition of substrate (zero time) and after 5 and 10 min. of incubation. Specific activities were expressed as nmoles of product formed per min. per mg. of protein, with the higher number representing better conversion. With each substrate, control experiments were conducted in the absence of NADH2, in the absence of oxygen, and using boiled extracts.
# (§8) The alcohol products were identified and estimated by retention time comparisons and co-chromatography with authentic standards using flame-ionization gas chromatography. The column temperature was maintained isothermally between 80 °C and 200°C with helium carrier gas flow rates of 20-40 ml per min. The amount of product formed was estimated from peak areas using a standard graph constructed using authentic compounds.
# Duplicate measurements were carried out for each substrate. Protein concentrations in cellular fractions were estimated with Folin Ciocalteu reagent as described by O.H. Lowry et al., J. Biol. Chem., 193, 265 (1951), using bovine serum albumin as a standard.
# [6] = system: Soluble Methane Monooxygenase from Methylobacterium organophilum (ATCC 27,886); test: Oxidation of alkanes/alkenes with NADH2 regenerated by formate and NAD+ (Example 20); format: biochemical
# Method: as §1, §2, §3, §4
# [7] = target: T1, soluble methane monooxygenase from Methylococcus capsulatus (Bath); conditions: cited from earlier work
# [8] = target: soluble methane monooxygenase from Methylosinus trichosporium (OB3b) (Methylosinus trichosporium, UniProt P27353); conditions: cited from earlier work
# [9] = system: Soluble Methane Monooxygenase from Methylobacterium organophilum (ATCC 27,886); test: Hydroxylation of alkanes / epoxidation of alkenes with NADH2 regenerated by formaldehyde dehydrogenase (Example 21); format: biochemical
# Method: as §1, §2, §3, §4
# [10] = system: Soluble Methane Monooxygenase; test: Effect of various cofactor systems on propylene oxidation by the soluble S(80) fraction (Examples 7, 11); format: biochemical, Methylobacterium organophilum (CRL.26); conditions: propylene substrate; for Specific Activity: cofactor system at 2.5 mM; for suitability as cofactor system / electron donor (in words): replacing NADH2
# Method: as §5, §7, §8, §6
# [11] = system: soluble methane monooxygenase; test: Other electron donors in place of NADH2 (Example 23); format: biochemical, Methylobacterium organophilum (ATCC 27,886); conditions: as electron donor replacing NADH2 in the procedure of Example 15
# Method: as §1, §2
# [12] = inhibitor 1 mM, incubated at 0°C for 15 min, propylene substrate, percentage of control (100%) containing no inhibitor
# [13] = inhibitor 1 mM, incubated at 0°C for 15 min, propylene substrate, percentage of control containing no inhibitor
# [14] = inhibitor 0.1 mM, incubated at 0°C for 15 min, propylene substrate, percentage of control (100%) containing no inhibitor
# [15] = inhibitor 0.1 mM, incubated at 0°C for 15 min, propylene substrate, percentage of control containing no inhibitor
# T1 sequence (P22869 whole entry): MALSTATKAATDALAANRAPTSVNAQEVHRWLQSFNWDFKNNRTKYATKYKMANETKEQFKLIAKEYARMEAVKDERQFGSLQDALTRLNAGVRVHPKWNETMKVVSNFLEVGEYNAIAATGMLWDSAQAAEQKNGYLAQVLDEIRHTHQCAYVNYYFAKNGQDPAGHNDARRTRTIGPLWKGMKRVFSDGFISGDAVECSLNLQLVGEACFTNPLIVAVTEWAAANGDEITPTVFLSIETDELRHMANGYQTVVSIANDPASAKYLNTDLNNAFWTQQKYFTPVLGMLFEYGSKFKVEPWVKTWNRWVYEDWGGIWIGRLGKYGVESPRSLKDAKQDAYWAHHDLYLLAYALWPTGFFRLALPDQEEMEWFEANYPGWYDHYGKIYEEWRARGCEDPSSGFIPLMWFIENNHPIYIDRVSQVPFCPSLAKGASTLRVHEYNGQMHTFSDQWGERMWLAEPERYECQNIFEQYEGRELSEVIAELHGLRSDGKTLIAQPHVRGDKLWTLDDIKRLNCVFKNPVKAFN
# T1 sequence (P18798 whole entry, further chain): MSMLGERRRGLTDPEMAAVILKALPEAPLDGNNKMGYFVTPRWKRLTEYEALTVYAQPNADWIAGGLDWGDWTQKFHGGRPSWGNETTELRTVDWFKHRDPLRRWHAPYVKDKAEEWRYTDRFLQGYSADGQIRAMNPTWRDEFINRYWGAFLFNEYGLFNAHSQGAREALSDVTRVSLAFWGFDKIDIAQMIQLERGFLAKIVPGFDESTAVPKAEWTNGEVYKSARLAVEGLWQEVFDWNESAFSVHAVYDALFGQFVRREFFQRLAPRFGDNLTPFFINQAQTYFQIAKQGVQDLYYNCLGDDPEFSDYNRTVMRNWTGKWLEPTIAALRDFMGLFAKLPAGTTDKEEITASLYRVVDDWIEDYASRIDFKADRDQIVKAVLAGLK
# T1 sequence (P11987 whole entry, further chain): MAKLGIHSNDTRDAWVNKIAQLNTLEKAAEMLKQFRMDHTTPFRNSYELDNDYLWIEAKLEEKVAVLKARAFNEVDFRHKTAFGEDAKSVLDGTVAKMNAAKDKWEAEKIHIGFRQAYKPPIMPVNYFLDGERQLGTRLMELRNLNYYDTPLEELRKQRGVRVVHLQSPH
# soluble methane monooxygenase from Methylosinus trichosporium (OB3b), sequence (P27354 whole entry): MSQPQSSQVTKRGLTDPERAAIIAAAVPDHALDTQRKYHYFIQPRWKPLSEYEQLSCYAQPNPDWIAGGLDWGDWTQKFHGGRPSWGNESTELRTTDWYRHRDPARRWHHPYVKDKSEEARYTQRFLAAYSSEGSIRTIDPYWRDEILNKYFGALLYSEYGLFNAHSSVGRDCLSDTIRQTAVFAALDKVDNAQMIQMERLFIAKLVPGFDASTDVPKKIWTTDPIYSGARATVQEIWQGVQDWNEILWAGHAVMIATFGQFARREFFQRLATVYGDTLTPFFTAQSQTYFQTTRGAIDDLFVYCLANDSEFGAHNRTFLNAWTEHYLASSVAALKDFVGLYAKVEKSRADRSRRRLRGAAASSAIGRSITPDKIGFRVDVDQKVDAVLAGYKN
# soluble methane monooxygenase from Methylosinus trichosporium (OB3b), sequence (P27355 whole entry, further chain): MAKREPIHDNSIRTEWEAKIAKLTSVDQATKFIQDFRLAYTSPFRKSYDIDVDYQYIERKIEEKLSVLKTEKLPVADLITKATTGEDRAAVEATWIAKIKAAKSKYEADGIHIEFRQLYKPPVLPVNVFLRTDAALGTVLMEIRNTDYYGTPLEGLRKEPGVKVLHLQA
# soluble methane monooxygenase from Methylosinus trichosporium (OB3b), sequence (P27353 whole entry): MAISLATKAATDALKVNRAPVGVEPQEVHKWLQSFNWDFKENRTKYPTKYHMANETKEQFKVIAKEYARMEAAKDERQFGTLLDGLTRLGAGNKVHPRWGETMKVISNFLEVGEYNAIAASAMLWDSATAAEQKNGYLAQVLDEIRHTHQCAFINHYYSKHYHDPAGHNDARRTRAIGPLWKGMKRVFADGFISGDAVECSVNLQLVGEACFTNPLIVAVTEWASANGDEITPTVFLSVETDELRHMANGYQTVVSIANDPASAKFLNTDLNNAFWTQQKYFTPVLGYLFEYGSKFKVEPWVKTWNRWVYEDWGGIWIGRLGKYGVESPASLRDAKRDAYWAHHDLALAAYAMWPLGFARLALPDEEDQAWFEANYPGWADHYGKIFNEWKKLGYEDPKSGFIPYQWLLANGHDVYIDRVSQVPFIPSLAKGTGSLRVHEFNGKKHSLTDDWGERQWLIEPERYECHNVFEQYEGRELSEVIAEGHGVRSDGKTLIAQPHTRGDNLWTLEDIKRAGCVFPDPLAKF
compound,measurement,setting,value
2-Butanol,Rate of Product Formation,"[1]; product Acetone, substrates Propane and 2-Butanol, NAD^+, secondary alcohol dehydrogenase",18 nmoles/ min/mg of protein
same,Rate of Product Formation,"[2]; product 2-Butanone, substrates Ethane and 2-Butanol",48 nmoles/ min/mg of protein
same,Rate of Product Formation,"[2]; product 2-Butanone, substrates Ethylene and 2-Butanol",45 nmoles/ min/mg of protein
same,Rate of Product Formation,"[2]; product 2-Butanone, substrates Methane and 2-Butanol",50 nmoles/ min/mg of protein
same,Rate of Product Formation,"[2]; product 2-Butanone, substrates Propane and 2-Butanol",45 nmoles/ min/mg of protein
same,Rate of Product Formation,"[2]; product 2-Butanone, substrates Propylene and 2-Butanol",50 nmoles/ min/mg of protein
"c1cnc2c(c1)ccc1cccnc12 [1,10-Phenanthroline]",inhibition of the activity of Methylococcus capsulatus (Bath) (in words),[3],did not inhibit
same,inhibition of soluble methane monooxygenase activity (in words),[4],not inhibited
same,Activity (%),[4]; [12],67%
same,Inhibition (%),[4]; [13],33%
same,inhibited activity of Methylobacterium organophilum (CRL.26),[4]; statement in the text of Example 9,about 30%
C=CCC [1-Butene],Rate of Product Formation,[5]; pH 7,180 nmoles/min/mg protein
same,Rate of Product Formation,[6]; pH 7,35 nmoles/ min/mg of protein
CC(C)O [2-Propanol],Rate of Product Formation,"[1]; product 2-Butanone, substrates Butane and 2-Propanol, NAD^+, secondary alcohol dehydrogenase",10 nmoles/ min/mg of protein
same,Rate of Product Formation,"[2]; product Acetone, substrates Butane and 2-Propanol",45 nmoles/ min/mg of protein
same,Rate of Product Formation,"[2]; product Acetone, substrates Isobutylene and 2-Propanol",45 nmoles/ min/mg of protein
"O=C(O)c1cc(SSc2ccc([N+](=O)[O-])c(C(=O)O)c2)ccc1[N+](=O)[O-] [5,5'-dithiobis-2-nitrobenzoate]",inhibition of soluble methane monooxygenase activity (in words),[4],inhibit
same,Activity (%),[4]; [12],38%
same,Inhibition (%),[4]; [13],62%
Oc1cccc2cccnc12 [8-Hydroxyquinoline],inhibition of soluble methane monooxygenase (in words),[7],strongly inhibits
same,Activity (%),[4],117%
same,Inhibition (%),[4],0%
same,inhibition of soluble methane monooxygenase activity (in words),[4],not inhibitory
same,inhibition of soluble methane monooxygenase (in words),[8],strongly inhibits
CCCC [Butane],Rate of Product Formation,[1],15 nmoles/ min/mg of protein
same,Rate of Product Formation,[5]; pH 7,250 nmoles/min/mg protein and 150 nmoles/min/mg protein
same,Rate of Product Formation,[9]; pH 7,20 nmoles/ min/mg of protein and 10 nmoles/ min/mg of protein
CC [Ethane],Rate of Product Formation,"[5]; product Ethanol, NAD^+, formaldehyde, reduced glutathione, formaldehyde dehydrogenase, pH 7.0",145 nmoles/min/mg protein
C=C [Ethylene],Rate of Product Formation,[1],25 nmoles/ min/mg of protein
same,Rate of Product Formation,[5]; pH 7,140 nmoles/min/mg protein
same,Rate of Product Formation,[6]; pH 7,28 nmoles/ min/mg of protein
same,Rate of Product Formation,[9]; pH 7,28 nmoles/ min/mg of protein
NC(=O)CI [Iodoacetamide],inhibition of soluble methane monooxygenase activity (in words),[4],inhibit
same,Activity (%),[4]; [12],20%
same,Inhibition (%),[4]; [13],80%
C=C(C)C [Isobutylene],Rate of Product Formation,"[1]; product Epoxyisobutylene, substrates Isobutylene and 2-Propanol, NAD^+, secondary alcohol dehydrogenase",29 nmoles/ min/mg of protein
C [Methane],Rate of Product Formation,"[5]; product Methanol, NAD^+, formaldehyde, reduced glutathione, formaldehyde dehydrogenase from Pichia sp., pH 7.0",128 nmoles/min/mg protein
CCN1C(=O)C=CC1=O [N-Ethylmaleimide],Activity (%),[4]; [12],102%
same,Inhibition (%),[4]; [13],0%
"NC(=O)C1=CN([C@@H]2O[C@H](COP(=O)(O)OP(=O)(O)OC[C@H]3O[C@@H](n4cnc5c(N)ncnc54)[C@H](O)[C@@H]3O)[C@@H](O)[C@H]2O)C=CC1 [NADH2, nicotinamide adenine dinucleotide in the reduced form]",Specific Activity,[10],100 nmoles/min/mg of protein
same,suitability as cofactor system / electron donor (in words),[10],suitable
same,soluble methane monooxygenase activity observed,[11],about 70%
"NC(=O)C1=CN([C@@H]2O[C@H](COP(=O)(O)OP(=O)(O)OC[C@H]3O[C@@H](n4cnc5c(N)ncnc54)[C@H](OP(=O)(O)O)[C@@H]3O)[C@@H](O)[C@H]2O)C=CC1 [NADPH2, nicotinamide adenine dinucleotide phosphate in the reduced form]",Specific Activity,[10],70 nmoles/min/mg of protein
same,suitability as cofactor system / electron donor (in words),[10],suitable
CCC [Propane],Rate of Product Formation,"[5]; product Propan-1-ol, NAD^+, formaldehyde, reduced glutathione, formaldehyde dehydrogenase, pH 7.0",60 nmoles/min/mg protein
same,Rate of Product Formation,"[5]; product Propan-2-ol, NAD^+, formaldehyde, reduced glutathione, formaldehyde dehydrogenase, pH 7.0",95 nmoles/min/mg protein
C=CC [Propylene],Rate of Product Formation,"[1]; product Propylene oxide, substrates Propylene and 2-Butanol, NAD^+, secondary alcohol dehydrogenase",48 nmoles/ min/mg of protein
same,Rate of Product Formation,"[5]; product Propylene Oxide, NAD^+, formaldehyde, reduced glutathione, formaldehyde dehydrogenase, pH 7.0",250 nmoles/min/mg protein
same,Rate of Product Formation,"[6]; product Propylene Oxide, NAD^+ and sodium formate, pH 7.0",54 nmoles/ min/mg of protein
same,Rate of Product Formation,"[9]; product Propylene Oxide, NAD^+, reduced glutathione, formaldehyde, formaldehyde dehydrogenase, pH 7.0",52 nmoles/ min/mg of protein
same,uninhibited rate of propylene oxidation,"[4]; no inhibitor, substrate propylene",(b) The uninhibited rate of propylene oxidation was 100 nmoles of propylene oxide produced/min/mg of protein.
NNC(N)=S [Thiosemicarbazide],inhibition of soluble methane monooxygenase activity (in words),[4],not inhibited
same,Activity (%),[4]; [12],108%
same,Inhibition (%),[4]; [13],0%
O=C(O)c1cc[c]([Hg+])cc1.[OH-] [p-Hydroxymercuribenzoate],Activity (%),[4]; [14],100%
same,Inhibition (%),[4]; [15],0%
Acriflavin,inhibition of soluble methane monooxygenase activity (in words),[4],inhibit
same,Activity (%),[4]; [14],71%
same,Inhibition (%),[4]; [15],29%
